From patent US9303261B2, “Composition for controlling chromogenesis including microRNA” (Amorepacific Corporation, priority 2011, dated 2016) come the findings set out here.

This data set has as its system tyrosinase mRNA. In words: Tyrosinase mRNA expression by real-time PCR after transfection of WM115 cells with miR-125b inhibitor. Format: cell-based, human. The conditions noted are these: melanoma cell line WM115, 75 uM transfected using liposome, about 60 hours, compared to Comparative Examples 1 and 2. The protocol:
The present inventors used an inhibitor of […] to perform a loss-of-function study of miR-125b, in which the inhibitor of miR-125b is an oligonucleotide having a sequence complementary to that of miR-125b and can bind to miR-125b in cells to inhibit the function of the miR-125b.
75 uM of an inhibitor of miR-125b (model: IH-300595-05-0005, miRIDIAN Hairpin Inhibitor, Human hsa-miR-125b MIMAT0000423/MI0000446 (hsa-miR-125b), Dharmacon, Inc.; Example 2) was transfected into the melanoma cell line WM115 using liposome and allowed to move into the cells. […] After transfection, the cells were cultured in a 5% CO2 incubator at 37° C. for about 60 hours, and then RNA was isolated from the cells using 1 ml of Trizol reagent. Specifically, the cells were lysed using Trizol, and then centrifuged to remove the supernatant, and 0.35 ml of isopropanol was added to the residue to form nucleic acid pellets, which were then washed with 70% EtOH and dissolved in water to isolate RNA. About 1 ug of the RNA was made into cDNA using oligo dT and reverse transcriptase, and the cDNA was subjected to real-time PCR according to the TaqMan method (Applied Biosystems) using a primer (assay ID: Hs01099965_m1) specific to tyrosinase mRNA under the following conditions: reaction at 95° C. for 10 min; and then about 45 cycles of 10 sec at 95° C. and 1 min at 60° C. […]

In the case of “Example 2: miRIDIAN Hairpin Inhibitor, Human hsa-miR-125b (IH-300595-05-0005, Dharmacon); oligonucleotide with sequence complementary to miR-125b”, the “expression level of tyrosinase mRNA (normalized to GAPDH)” value was “significantly increased”.
